Measured values reported in patent US9867798B2, “Ladostigil therapy for immunomodulation” (priority 2012, dated 2018).

Key:
[1] = tested on: mice with DSS-induced colitis; assay: Acute colitis induced by DSS in mice: body weight, stool, bleeding, DAI, colon length; assay type: in vivo, BALB/c OlaHsd mice
Procedure: (§1) BALB/c OlaHsd male mice aged 8-9 weeks and weighing 25-30 g were purchased from Harlan (Jerusalem, Israel) and housed in standard cages of up to 5 per cage in the pathogen free Animal Facility of the Institute for Drug Research. All experiments were performed in accordance with the Principles of Laboratory Animal Care (NIH publication #85-23, revised 1985) protocols MD-09-12197-4. Acute colitis was induced in mice by administration of 5% DSS solution (M.Wt.=[…], MP Biomedicals, LLC, Solon, Ohio, USA) in water for 8 days. The DSS solution was freshly prepared every day. Mice were provided with food and water or DSS solution ad libitum during the experiment. They were divided into groups of 10 as follows: Vehicle control group: mice drank water and were given water (1 ml/100 gm) once daily by gavage for 8 days; Drug control group: mice drank water and were given ladostigil (10 mg/kg) by gavage once daily for 8 days. DSS untreated group: mice drank 5% DSS for 7 days and water on the 8th day and were given water (1 ml/100 g) once daily by gavage for 8 days. Drug treated group: mice drank 5% DSS followed by water as above and were given ladostigil (5 or 10 mg/kg) by gavage once daily for 8 days. The volume of 5% DSS solution consumed was measured for each group of mice and the average volume/mouse was calculated. On the eighth day, the mice were anesthetized by CO2 and sacrificed by cervical dislocation 2 h after the last dose of ladostigil. Samples of colon and spleen were taken for measurement of cytokines MPO, cytokines and ChE activity.
Body weight, stool consistency and the presence of blood in the stools was recorded daily for each mouse. […] The score ranged between 0-4 for all three parameters and was composed as follows: Weight loss: none=0, 1-5%=1, 5-10%=2, 10-20%=3, >20%=4. Percent of weight loss on days 7 and 8 relative to the first day was calculated for all the groups. […] Bleeding: none=0, hemoccult=2, gross bleeding=4. The maximum DAI score was 4 based on a combination of scores of weight loss (relative to that on the first day of the experiment), stool consistency and bleeding, divided by 3. After sacrifice the length of the colon segment from the cecum to the rectum was measured.

[2] = tested on: cholinesterase (AChE and BuChE); assay: Cholinesterase activity in spleen and colon of mice drinking DSS (Ellman); assay type: in vivo; conditions: rivastigmine 1 mg/kg/day
Procedure: as §1
(§2) In experiments on the effect of chronic treatment with ladostigil on ChE activity in mice drinking DSS, the spleen was rapidly removed as described above, together with a colon segment of about 0.5 cm in length taken from the proximal area. Spleen and colon segments were washed in cold phosphate buffered saline (PBS) before they were frozen at −80° C. For assay, the tissue was unfrozen and weighed and PBS was added to each tissue at a ratio of 1 mg tissue to 1 ml. Tissues were homogenized at a speed of 24,000 rpm in cold phosphate buffer pH 7 containing 0.1% Triton and centrifuged at 14000 rpm. Aliquots of plasma and the supernatant from the spleen and colon were incubated with acetylthiocholine and dinitro benzoic acid in phosphate buffer pH 7 and the rate of development of the yellow color was measured as described by Ellman et al, (1961). Percent inhibition of ChE activity was calculated by comparison with that of control mice given water by gavage. Protein concentration was determined by means of by Pierce BCA Protein Assay Kit (Thermo Scientific, USA) according to the manufacturer's instructions. It is noted, that ChE activity in the colon and spleen of mice is attributed mainly to that of AChE while that in mouse plasma is mainly attributable to BuChE.

[3] = tested on: LPS-induced TNF-α, IL-1β and IL-6 in spleen; assay: Cytokines in spleen of mice injected with LPS, comparison to rivastigmine (Example 5); assay type: in vivo, Balb/c mice; conditions: for IL-1β in spleen / IL-6 in spleen / TNF-α in spleen: four hours
Procedure: Male Balb/c mice (aged 8-9 weeks, weighing 25-30 gm) were given ladostigil (10 or 20 mg/kg) or rivastigmine (0.5 or 1 mg/kg) by gavage, or water (1 ml/100 g), followed 15 min later by an intra-peritoneal injection of LPS (10 mg/kg). Control mice were given LPS and water by gavage (1 ml/100 g). For measurement of cytokine levels in the spleen and blood the mice were sacrificed 4 h after drug administration, blood collected in heparinized tubes and centrifuged to obtain plasma and the spleen was rapidly removed and weighed. Plasma and spleen were frozen in liquid nitrogen and stored at −80° C. until use. For measurement of cytokine levels, the tissue was diluted in PBS containing 0.8% NaCl, 0.144% NaHPO4, 0.024% KH2PO4 and protease inhibitor cocktail (Sigma Israel, P8340) and homogenized in an Ultra-TURRAX® homogenizer at a speed of 24,000 rpm, centrifuged at 14000 g for 15 min at 4° C. Cytokines were detected in the supernatant by using ELISA kits for cytokines IL-1β, IL-6, and TNF-α (Biolegend) following the manufacturer's protocol. Each experiment was performed twice with 8 replicate measures in each experiment. Protein concentration in each sample was determined with Bradford reagent (Bio-RAD, 500-0006).

ChE = assay: Cholinesterase inhibition in plasma and spleen of LPS injected mice (Example 5); assay type: in vivo, Balb-C mice; conditions: for Inhibition of ChE, plasma / Inhibition of ChE, spleen: 60 min after oral administration, LPS injected mice
Procedure: as §2
For the LPS experiment involving a single administration, ladostigil (10 or 20 mg/kg) in a volume of 1 ml/100 g or water (1 ml/100 g) were given by gavage to groups of 6-8 Balb-C male mice weighing 24-30 g and LPS as described above. […] Blood was taken into heparinized tubes and centrifuged at 14000 rpm at room temperature for 4 min to provide plasma and the spleen was rapidly removed, weighed, frozen in liquid nitrogen and stored at −80° C. until assayed. It is noted, that ChE inhibition in mouse plasma is mainly attributed to BuChE activity, and in mouse spleen—mainly to AChE activity.
Percent inhibition of ChE activity was calculated by comparison with that of control mice given water by gavage as described in Example 1 above.

[4] = rivastigmine 0.5 mg/kg + LPS 10 mg/kg
[5] = rivastigmine 1 mg/kg + LPS 10 mg/kg

**Q.** What does the source list for `CCN(C)C(=O)Oc1cccc([C@H](C)N(C)C)c1` [Rivastigmine, reference compound]?
**A.** Prevention of weight loss induced by DSS ([1]; 5% DSS, rivastigmine): did not prevent the weight loss; Body weight decrease ([1]; mice given 1 mg/kg/day): 4.7%; Inhibition of colonic ChE [2]: > 60%; Effect on levels of the three cytokines in spleen ([3]; rivastigmine 0.5 mg/kg + LPS): had no effect on levels of any of the three cytokines; IL-1β in spleen [3, 4]: 551 ± 31 pg/mg; IL-6 in spleen [3, 4]: 569 ± 89 pg/mg; TNF-α in spleen [3, 4]: 16.8 ± 2.5 pg/mg; Effect on cytokine levels in spleen ([3]; rivastigmine 1 mg/kg + LPS): significantly reduced IL-1β and IL-6, but not of TNF-α; IL-1β in spleen [3, 5]: 440 ± 40 pg/mg; IL-6 in spleen [3, 5]: 462 ± 66 pg/mg; TNF-α in spleen [3, 5]: 16.5 ± 2.2 pg/mg; Inhibition of ChE, plasma (ChE; rivastigmine 0.5 mg/kg): 28 ± 4.5 %; Inhibition of ChE, spleen (ChE; rivastigmine 0.5 mg/kg): 32.6 ± 5.6 %; Inhibition of ChE in plasma and spleen, compared with rivastigmine 0.5 mg/kg (ChE; rivastigmine 1 mg/kg): about twice as much; Inhibition of ChE, plasma (ChE; rivastigmine 1 mg/kg): 56.8 ± 6.1 %; Inhibition of ChE, spleen (ChE; rivastigmine 1 mg/kg): 65.8 ± 3.2 %
